# Experiments:
# [1] = in vitro; conditions: PAMPA
# [2] = target: Acetylcholinesterase (Electrophorus electricus, UniProt O42275); assay: Inhibition of electric eel AChE using acetylthiocholine iodide as substrate incubated for 15 mins by Ellman's method
# [3] = physchem; conditions: octanol/water
# Description: Lipophilicity, log D of compound
# [4] = target: Acetylcholinesterase (Homo sapiens, UniProt P22303)
# Description: Inhibition of AChE (unknown origin)
# [5] = Lipophilicity, log P of the compound; assay type: physicochemical; conditions: octanol/water
# Sequence of Acetylcholinesterase (Electrophorus electricus, UniProt O42275) (O42275 whole entry): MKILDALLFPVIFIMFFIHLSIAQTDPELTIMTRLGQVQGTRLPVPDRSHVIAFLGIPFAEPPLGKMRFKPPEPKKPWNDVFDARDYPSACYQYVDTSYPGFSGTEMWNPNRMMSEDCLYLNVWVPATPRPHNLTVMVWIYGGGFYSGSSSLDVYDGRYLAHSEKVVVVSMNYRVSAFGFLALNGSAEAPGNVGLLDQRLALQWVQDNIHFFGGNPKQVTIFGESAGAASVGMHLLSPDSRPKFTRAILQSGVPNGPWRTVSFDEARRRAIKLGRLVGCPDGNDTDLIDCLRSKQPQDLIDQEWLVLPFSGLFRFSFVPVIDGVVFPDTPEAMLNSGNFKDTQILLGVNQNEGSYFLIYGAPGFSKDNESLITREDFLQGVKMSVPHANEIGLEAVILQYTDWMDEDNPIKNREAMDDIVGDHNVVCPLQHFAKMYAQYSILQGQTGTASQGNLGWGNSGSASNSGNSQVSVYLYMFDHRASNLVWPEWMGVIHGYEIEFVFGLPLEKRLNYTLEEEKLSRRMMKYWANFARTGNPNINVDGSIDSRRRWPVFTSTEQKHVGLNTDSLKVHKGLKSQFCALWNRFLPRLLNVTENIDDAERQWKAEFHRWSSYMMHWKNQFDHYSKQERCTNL
# Sequence of Acetylcholinesterase (Homo sapiens, UniProt P22303) (P22303 whole entry): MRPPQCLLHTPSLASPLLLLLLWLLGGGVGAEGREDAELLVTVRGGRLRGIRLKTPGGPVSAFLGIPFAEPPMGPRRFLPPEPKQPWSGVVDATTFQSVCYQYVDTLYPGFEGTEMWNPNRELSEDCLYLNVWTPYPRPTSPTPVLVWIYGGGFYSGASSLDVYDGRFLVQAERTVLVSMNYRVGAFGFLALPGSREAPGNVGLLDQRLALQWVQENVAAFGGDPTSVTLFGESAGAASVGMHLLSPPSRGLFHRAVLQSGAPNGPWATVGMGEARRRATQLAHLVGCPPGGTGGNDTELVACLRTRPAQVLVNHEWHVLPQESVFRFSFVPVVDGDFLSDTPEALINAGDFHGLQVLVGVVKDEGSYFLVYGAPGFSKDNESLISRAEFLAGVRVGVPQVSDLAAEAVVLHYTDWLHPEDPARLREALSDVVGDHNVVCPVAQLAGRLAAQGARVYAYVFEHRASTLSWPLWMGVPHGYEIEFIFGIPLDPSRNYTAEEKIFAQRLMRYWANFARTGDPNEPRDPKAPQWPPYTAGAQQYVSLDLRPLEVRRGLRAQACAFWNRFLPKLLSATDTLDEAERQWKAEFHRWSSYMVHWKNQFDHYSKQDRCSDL
SMILES,Papp at 8 h [1] [×10⁻⁶ cm/s],IC50 [2] [µM],further results
Nc1cccc(CN2CCC(CCN3C(=O)c4ccccc4C3=O)CC2)c1,2.9,0.15,–
NCc1cccc(CN2CCC(CCN3C(=O)c4ccccc4C3=O)CC2)c1,1.4,0.299,–
O=C1c2ccccc2C(=O)N1CCC1CCN(Cc2ccccc2)CC1,–,0.0132,–
COc1cc2c(cc1OC)C(=O)C(CC1CCN(CCCN)CC1)C2 (centres undefined),–,10.8,–
NCCc1ccc(O)c(O)c1 [DOPAMINE],3.3,–,–
COc1cc2c(cc1OC)C(=O)C(CC1CCN(Cc3ccc(N)cc3)CC1)C2 (centres undefined),–,0.0991,–
O=C(c1ccccc1)N1CCC(CCN2C(=O)c3ccccc3C2=O)CC1,–,63,–
COc1cc(O)c(C(=O)Nc2nc(C(=O)NCCN(C(C)C)C(C)C)cs2)cc1OC [ACOTIAMIDE],–,–,logD [3]: 0.7; IC50 [4]: 3 µM; logP [5]: < 2
O=C1c2ccccc2C(=O)N1CC1CCN(Cc2ccccc2)CC1,10.7,22.8,–
Nc1ccc(CN2CCC(CCN3C(=O)c4ccccc4C3=O)CC2)cc1,–,0.327,–
COc1cc2c(cc1OC)C(=O)C(CC1CCN(Cc3cccc(CN)c3)CC1)C2 (centres undefined),1.5,1.03,–
COc1cc2c(cc1OC)C(=O)C(CC1CCN(Cc3ccc(CN)cc3)CC1)C2 (centres undefined),–,5.8,–
COc1cc2c(cc1OC)C(=O)C(CC1CCNCC1)C2 (centres undefined),–,9.45,–
COc1cc2c(cc1OC)C(=O)C(CC1CCN(Cc3ccc(C(=O)O)cc3)CC1)C2 (centres undefined),–,72.2,–
COc1cc2c(cc1OC)C(=O)C(CC1CCN(Cc3cccc(N)c3)CC1)C2 (centres undefined),3.7,0.0473,–
COc1cc2c(cc1OC)C(=O)C(CC1CCN(C(=O)c3ccccc3)CC1)C2 (centres undefined),–,17.9,–
NCc1ccc(CN2CCC(CCN3C(=O)c4ccccc4C3=O)CC2)cc1,–,1.54,–
COc1cc2c(cc1OC)C(=O)C(CC1CCN(CCN)CC1)C2 (centres undefined),–,11.2,–
Nc1ccc(CN2CCC(CN3C(=O)c4ccccc4C3=O)CC2)cc1,–,25.2,–
COc1cc2c(cc1OC)C(=O)C(CC1CCN(CCCCN)CC1)C2 (centres undefined),–,14.6,–
Clc1cccc(Cl)c1N=C1NCCN1 [CLONIDINE],12.2,–,–
COc1cc2c(cc1OC)C(=O)C(CC1CCN(Cc3cccc(NC(=O)c4ccccc4)c3)CC1)C2 (centres undefined),–,22.8,–

# Source: ChEMBL document CHEMBL5537214 (RSC Med Chem, 2024)
